Data: US20260174083A1, “FUNGICIDAL MIXTURE COMPRISING SUBSTITUTED PYRIDINES” (BASF SE, priority 2022, published 2026)
Where two headings read alike, the source gives them in different places.

How the values were obtained:
Format in all cases: cell-based
[1] = system: Septoria tritici; test: Activity against leaf blotch on wheat caused by Septoria tritici (microtiterplate test)
[2] = system: Pyricularia oryzae; test: microbe, parasite or virus in culture; conditions: for Observed efficacy: single active, MTP, 405 nm, 7 days after inoculation
[3] = system: Botrytis cinerea; test: Activity against the grey mold Botrytis cinerea in the microtiterplate test
[4] = Zymoseptoria tritici, 168 h, single active, MTP, 405 nm, 7 days after inoculation, read-out: Observed efficacy
[5] = Zymoseptoria tritici, 168 h, single active, 0.016 ppm, MTP, 405 nm, 7 days after inoculation, read-out: Observed efficacy
[6] = Zymoseptoria tritici, 168 h, single active, 0.063 ppm, MTP, 405 nm, 7 days after inoculation, read-out: Observed efficacy
[7] = Zymoseptoria tritici, 168 h, single active, 0.25 ppm, MTP, 405 nm, 7 days after inoculation, read-out: Observed efficacy
[8] = Pyricularia oryzae, 168 h, read-out: Observed efficacy
[9] = Botrytis cinerea, 168 h, single active, MTP, 405 nm, 7 days after inoculation, read-out: Observed efficacy
[10] = Botrytis cinerea, 168 h, single active, 1 ppm, MTP, 405 nm, 7 days after inoculation, read-out: Observed efficacy
[11] = single active, 0.063 ppm, MTP, 405 nm, 7 days after inoculation
[12] = Botrytis cinerea, 168 h, single active, 4 ppm, MTP, 405 nm, 7 days after inoculation, read-out: Observed efficacy

CO/C=C(/C(=O)OC)c1ccccc1Oc1cc(Oc2ccccc2C#N)ncn1 [Azoxystrobin, azoxystrobin, reference compound]
Observed efficacy ([1]; single active, 0.016 ppm, MTP, 405 nm, 7 days after inoculation): 0%

O=C(Nc1ccccc1-c1ccc(Cl)cc1)c1cccnc1Cl [Boscalid, boscalid, reference compound]
inhibition of growth at 1 ppm [1, 4]: 54%

Cc1cc(C2=N[C@@H](C)[C@H](C)Oc3ccccc32)cnc1C(F)F [Compound 1-1]
inhibition of growth at 0.016 ppm [1, 5]: 0%
inhibition of growth at 0.063 ppm [1, 6]: 0%
inhibition of growth at 0.25 ppm [1, 7]: 26%
inhibition of growth at 0.25 ppm [2, 8]: 7%
inhibition of growth at 0.25 ppm [3, 9]: 7%

Cc1cc(C2=N[C@@H](C)C(C)(C)Oc3c(F)cccc32)cnc1C(F)F [Compound 1-2]
inhibition of growth at 0.016 ppm [1, 5]: 0%
inhibition of growth at 0.063 ppm [1, 6]: 0%
inhibition of growth at 0.25 ppm [1, 7]: 13%
inhibition of growth at 0.063 ppm [2, 8]: 11%
inhibition of growth at 0.25 ppm [2, 8]: 11%
inhibition of growth at 1 ppm [2, 8]: 35%
inhibition of growth at 0.063 ppm ([3]; Botrytis cinerea, 168 h, single active, 0.063 ppm, MTP, 405 nm, 7 days after inoculation, read-out: Observed efficacy): 11%
inhibition of growth at 0.25 ppm [3, 9]: 11%
inhibition of growth at 1 ppm [3, 10]: 35%

Cc1cc(C2=NC(C)C(C)(C)Oc3c(F)cccc32)cnc1C(F)F (stereo not drawn) [Compound 1-3]
inhibition of growth at 1 ppm [2, 8]: 19%
inhibition of growth at 1 ppm [3, 10]: 9%

Cc1cc(C2=N[C@@H](C)C(C)(C)Oc3ccccc32)cnc1C(F)F [Compound 1-4]
inhibition of growth at 1 ppm [2, 8]: 17%
inhibition of growth at 1 ppm [3, 10]: 17%

Cc1cc(C2=N[C@H](C)C(C)(C)Oc3ccccc32)cnc1C(F)F [Compound 1-5]
inhibition of growth at 0.016 ppm [1, 5]: 0%
inhibition of growth at 0.063 ppm [1, 6]: 3%
inhibition of growth at 0.25 ppm [1, 7]: 1%

Cc1cc(C2=NC3(CC3)COc3c(F)cccc32)cnc1C(F)F [Compound 1-6]
inhibition of growth at 0.25 ppm [1, 7]: 0%
inhibition of growth at 1 ppm [1, 4]: 3%
inhibition of growth at 0.25 ppm [2, 8]: 5%
inhibition of growth at 1 ppm [2, 8]: 14%
inhibition of growth at 0.25 ppm [3, 9]: 5%
inhibition of growth at 1 ppm [3, 10]: 14%

Cc1cc(C2=NCC(C)(C)Oc3c(F)cccc32)cnc1C(F)F [Compound 1-7]
inhibition of growth at 0.016 ppm [1, 5]: 12%
inhibition of growth at 0.25 ppm [2, 8]: 0%
inhibition of growth at 0.25 ppm [3, 9]: 0%

CC1COC(Cn2cncn2)(c2ccc(Oc3ccc(Cl)cc3)cc2Cl)O1 (stereo not drawn) [Difenoconazol, difenoconazole, reference compound]
inhibition of growth at 0.25 ppm [2, 8]: 26%
inhibition of growth at 0.25 ppm [3, 9]: 26%

CNC(=O)/C(=N/OC)c1ccccc1COc1cc(C)ccc1C [Dimoxystrobin, dimoxystrobin, reference compound]
Observed efficacy ([2]; 1 ppm): 16%
Observed efficacy ([3]; single active, 1 ppm, MTP, 405 nm, 7 days after inoculation): 16%

N#Cc1c[nH]cc1-c1cccc2c1OC(F)(F)O2 [Fludioxonil, fludioxonil, reference compound]
inhibition of growth at 0.25 ppm ([1]; Zymoseptoria tritici, 168 h, read-out: Observed efficacy): 26%

Cn1cc(C(=O)Nc2ccccc2-c2cc(F)c(F)c(F)c2)c(C(F)F)n1 [Fluxapyroxad, fluxapyroxad, reference compound]
Observed efficacy [1, 11]: 37%

CC(C)NC(=O)N1CC(=O)N(c2cc(Cl)cc(Cl)c2)C1=O [Iprodion, iprodione, reference compound]
inhibition of growth at 1 ppm [2, 8]: 60%
inhibition of growth at 1 ppm [3, 10]: 60%

Cc1cc(OC(C)C)ccc1C(=O)C(C)(C)NC(=O)c1sccc1C [Isofetamid, isofetamid, reference compound]
Observed efficacy ([1]; single active, 0.25 ppm, MTP, 405 nm, 7 days after inoculation): 46%

CC(C)OC(=O)C(C(=O)OC(C)C)=C1SCCS1 [Isoprothiolan, isoprothiolane, reference compound]
inhibition of growth at 4 ppm [2, 8]: 8%
inhibition of growth at 4 ppm ([3]; Botrytis cinerea, 168 h, read-out: Observed efficacy): 8%

N#Cc1ccccc1NC(=O)c1snc(Cl)c1Cl [Isotianil, isotianil, reference compound]
Observed efficacy ([2]; 4 ppm): 6%
Observed efficacy ([3]; single active, 4 ppm, MTP, 405 nm, 7 days after inoculation): 6%

CC(O)(Cn1cncn1)c1ccc(Oc2ccc(Cl)cc2)cc1C(F)(F)F (stereo not drawn) [Mefentrifluconazol, mefentrifluconazole, reference compound]
Observed efficacy ([2]; 0.063 ppm): 49%
Observed efficacy [3, 11]: 49%

OC(Cc1ccccc1Cl)(Cn1nc[nH]c1=S)C1(Cl)CC1 (stereo not drawn) [Prothioconazol, prothioconazole, reference compound]
inhibition of growth at 0.25 ppm [1, 7]: 42%
inhibition of growth at 4 ppm [2, 8]: 35%
inhibition of growth at 4 ppm [3, 12]: 35%

COC(=O)NC(=S)Nc1ccccc1NC(=S)NC(=O)OC [Thiophanate methyl, thiophanate-methyl, reference compound]
inhibition of growth at 1 ppm [1, 4]: 10%
inhibition of growth at 1 ppm [2, 8]: 9%
inhibition of growth at 1 ppm [3, 10]: 9%

Cc1ccc(NC(=O)c2snnc2C)cc1Cl [Tiadinil, tiadinil, reference compound]
inhibition of growth at 4 ppm ([1]; Zymoseptoria tritici, 168 h, single active, 4 ppm, MTP, 405 nm, 7 days after inoculation, read-out: Observed efficacy): 24%

Cc1cccc2sc3nncn3c12 [Tricyclazol, tricyclazole, reference compound]
inhibition of growth at 1 ppm [1, 4]: 14%
inhibition of growth at 4 ppm [2, 8]: 14%
inhibition of growth at 4 ppm [3, 12]: 14%
